Assay results as given in publication PMC7796287, “Phloroglucinol Derivatives from Dryopteris crassirhizoma as Potent Xanthine Oxidase Inhibitors” (Molecules, 2020).
Where two headings read alike, the source gives them in different places.

Assays:
xanthine oxidase (XO) = biological target: T1, xanthine oxidase (XO) (Bos taurus, UniProt P80457); test: Assay of XO-inhibitory activity and kinetics (oxidation of xanthine to uric acid, absorbance at 295 nm); format: biochemical, bovine milk; conditions: for Xanthine Oxidase Kinetic Mode / Ki: Lineweaver–Burk and Dixon plots; for inhibition at 25 µM: read-out: Xanthine Oxidase Inhibition %; for Ki: read-out: Xanthine Oxidase Ki (inhibition constant); for IC50: isolated compounds and positive controls, substrate xanthine, pH 7.5, 37 °C
T1 construct: 20 µL of 0.1 unit XO enzyme (bovine milk) in buffer; from tissue; host or cells: bovine milk
Protocol: The extracts from four different polar solvents (EtOAc, MeOH, 50% MeOH, and H2O) were tested for their enzyme-inhibitory activities against XO. The enzyme assay followed the oxidation of xanthine to uric acid at 295 nm spectrophotometrically. […] In addition to ^13C-NMR data, various spectroscopic data were used to identify the structures. […]
XO-inhibitory activity was assayed spectrophotometrically on a SpectraMax M2 microplate reader, using a previously reported experimental procedure with a slight modification. First, 135 µL of 100 mM sodium pyrophosphate buffer (HCl, pH 7.5), 20 µL of 0.1 unit XO enzyme (bovine milk) in buffer, and 5 µL of samples (test extracts or compounds) in dimethylsulfoxide were mixed at 37 °C. The reaction was started by adding 40 µL of substrate (0.5 mM xanthine) in buffer to the mixture. The reaction mixture (200 µL) was incubated at 37 °C in a 300 µL well plate and the UV absorbance at 295 nm was determined every 1 min up to 5 min.

T1 sequence (P80457 whole entry): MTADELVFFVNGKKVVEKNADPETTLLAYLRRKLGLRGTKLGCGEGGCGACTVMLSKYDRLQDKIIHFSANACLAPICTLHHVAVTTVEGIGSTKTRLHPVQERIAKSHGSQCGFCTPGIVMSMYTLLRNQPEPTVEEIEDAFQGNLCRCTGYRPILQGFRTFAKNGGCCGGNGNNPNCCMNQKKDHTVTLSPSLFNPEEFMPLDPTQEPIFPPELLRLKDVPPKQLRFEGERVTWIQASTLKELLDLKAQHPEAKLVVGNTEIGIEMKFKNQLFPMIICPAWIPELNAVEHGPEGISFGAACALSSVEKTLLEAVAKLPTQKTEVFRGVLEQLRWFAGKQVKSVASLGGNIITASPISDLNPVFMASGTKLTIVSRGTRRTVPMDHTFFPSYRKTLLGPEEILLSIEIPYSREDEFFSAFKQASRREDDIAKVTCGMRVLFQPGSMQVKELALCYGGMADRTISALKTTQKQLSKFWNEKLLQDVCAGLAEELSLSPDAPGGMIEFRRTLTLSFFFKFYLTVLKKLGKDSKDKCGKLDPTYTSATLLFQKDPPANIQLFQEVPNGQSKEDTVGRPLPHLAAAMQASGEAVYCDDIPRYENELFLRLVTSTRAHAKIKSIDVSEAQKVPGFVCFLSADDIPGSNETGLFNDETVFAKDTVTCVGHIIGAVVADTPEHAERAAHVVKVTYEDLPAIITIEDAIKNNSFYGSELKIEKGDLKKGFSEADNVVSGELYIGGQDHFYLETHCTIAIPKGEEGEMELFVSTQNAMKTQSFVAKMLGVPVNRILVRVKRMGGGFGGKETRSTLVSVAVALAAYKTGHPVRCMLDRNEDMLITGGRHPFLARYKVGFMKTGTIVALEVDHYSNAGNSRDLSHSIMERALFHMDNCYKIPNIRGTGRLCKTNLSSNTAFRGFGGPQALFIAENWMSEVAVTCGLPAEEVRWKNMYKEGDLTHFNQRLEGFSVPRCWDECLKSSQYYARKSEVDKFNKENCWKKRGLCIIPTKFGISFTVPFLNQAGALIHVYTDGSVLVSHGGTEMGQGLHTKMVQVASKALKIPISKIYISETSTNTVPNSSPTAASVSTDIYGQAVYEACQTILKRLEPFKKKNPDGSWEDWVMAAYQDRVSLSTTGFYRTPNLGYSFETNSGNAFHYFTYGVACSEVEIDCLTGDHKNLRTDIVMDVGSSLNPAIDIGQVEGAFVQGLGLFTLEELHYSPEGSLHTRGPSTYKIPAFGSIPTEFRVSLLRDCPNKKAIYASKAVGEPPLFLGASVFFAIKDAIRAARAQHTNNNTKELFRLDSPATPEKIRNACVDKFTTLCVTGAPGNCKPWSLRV

| Compound | Xanthine Oxidase Kinetic Mode (xanthine oxidase (XO)) | inhibition at 25 µM (xanthine oxidase (XO)) [%] | Ki (xanthine oxidase (XO)) [µM] | efficacy of 1 relative to 4 (fold, from IC50) (xanthine oxidase (XO); XO inhibition, compared with 4 (IC50 = 20.9 µM)) [fold] | Reversibility of XO inhibition (xanthine oxidase (XO); activity versus enzyme concentration (0-0.2 units/mL) at different inhibitor concentrations) | IC50 (xanthine oxidase (XO)) [µM] | inhibition at 25 µM (xanthine oxidase (XO); sample concentration 25 µM) [%] | melting point [°C] |
| --- | --- | --- | --- | --- | --- | --- | --- | --- |
| Oc1ncnc2[nH]ncc12 [Allopurinol, reference compound] | Competitive | 82.5 ± 1.7 |  |  |  |  |  |  |
| CCC(=O)c1c(O)c(C)c(O)c(CC2=C(O)C(C)(C)C(O)=C(C(C)=O)C2=O)c1O [Compound 1, flavaspidic acid AP] | noncompetitive inhibitor |  | 7.8 | ~4 | reversible inhibitor | 6.3 ± 0.4 | 79.6 ± 1.6 |  |
| CCCC(=O)c1c(O)c(C)c(O)c(CC2=C(O)C(C)(C)C(O)=C(C(C)=O)C2=O)c1O [Compound 2, flavaspidic acid AB] | Noncompetitive |  | 11.7 |  |  | 10.2 ± 0.5 | 68.1 ± 1.3 | 158 to 160 |
| CCCC(=O)c1c(O)c(C)c(O)c(CC2=C(O)C(C)(C)C(O)=C(C(=O)CC)C2=O)c1O [Compound 3, flavaspidic acid PB] | Noncompetitive |  | 15.3 |  |  | 13.2 ± 0.6 | 62.1 ± 0.9 | 156 to 158 |
| CCCC(=O)C1=C(O)C(C)(C)C(O)=C(Cc2c(O)c(C)c(O)c(C(=O)CCC)c2O)C1=O [Compound 4, 2-butyryl-6-(3-butyryl-2,4,6-trihydroxy-5-methylbenzyl)-3,5-dihydroxy-4,4-dimethylcyclohexa-2,5-dienone] | Noncompetitive |  | 21.1 |  |  | 20.9 ± 0.9 | 54.4 ± 1.5 |  |
| O=c1[nH]c(=O)c2c[nH]nc2[nH]1 [Oxypurinol, reference compound] |  |  |  |  |  | 43.1 ± 0.8 | 42.2 ± 1.2 |  |
